Source: patent publication US12011443B2, “Pharmaceutical composition for preventing or treating nonalcoholic steatohepatitis” (J2H BIOTECH INC., priority 2018, dated 2024)

Key:
[1] = tested on: non-alcoholic steatohepatitis prevention model, MCD feed, mice (C57BL/6); experiment: Non-alcoholic steatohepatitis prevention model (MCD feed with simultaneous administration for 12 weeks); assay type: in vivo; settings: 12 weeks with MCD feed, vs vehicle control group (G2)
Experimental: The efficacy of the test compound for preventing non-alcoholic steatohepatitis was evaluated. Using 7-week-old mice (C57BL/6), the normal group (G1) was supplied with general feed, and the vehicle control group (G2), positive control group (G3), and test groups (G4, G5) were supplied with the MCD feed for 12 weeks. Simultaneously with the MCD diet, test compounds and controls were administered orally once a day. Mice were divided into five groups, and a total of 75 mice, 15 mice per each group, were used for the experiment.
In order to evaluate the prophylactic efficacy, the test compound was administered for 12 weeks at the same time as induction with the MCD diet, and the efficacy of the test compound for the prevention of steatohepatitis was evaluated.
Each appropriate amount of the control compound (Obeticholic acid, 10 mg/kg/day) and the test compound was weighed, and then diluted in 0.5 wt % methyl cellulose aqueous solution to which 1 wt % Tween 80 was added. During oral administration, the weight of the mouse was measured, and the animals were fixed using the cervical skin fixation method, and each test substance was administered using a sonde for oral administration. […]

[2] = Tissue concentration after oral administration to the mouse; assay type: in vivo; settings: 2 hours after oral administration
[3] = tested on: non-alcoholic steatohepatitis C57BL/6 mouse model induced by the methionine and choline deficient (MCD) diet; experiment: Non-alcoholic steatohepatitis treatment model (MCD diet), 6 weeks repeated oral administration; assay type: in vivo, C57BL/6 mice; settings: for LDL level (blood biochemical test) / oil red O staining area level: p<0.01
Description: The MCD model, which is an animal model of steatohepatitis, was used. C57BL/6 mice were supplied with a MCD (methionine-choline deficient) diet for 5 days, followed by a normal diet for 2 days. In this way, for 10 weeks, the MCD diet and normal diet were alternately supplied. Animals were identified using tail marks during the acclimatization period (blue), dosing and observation period (red). Individual identification cards, distinguished by color, were attached to the breeding box, and an animal room usage record was attached to the entrance of the breeding room.
During the acclimatization period, blood biochemical tests and body weight measurements were performed. Mice were randomly distributed so that the average of each group was distributed as uniformly as possible according to the ranked ALT and body weight levels. [10 animals in the normal feed group (G1), 40 animals in the MCD diet group (G2-G5)]
The improvement effect that appeared when the test compound was repeatedly administered for 6 weeks to the non-alcoholic steatohepatitis C57BL/6 mouse model induced over 10 weeks with the MCD diet was evaluated. Test compound was administered once a day for 6 weeks. As a positive control, obeticholic acid (hereinafter referred to as OCA), which is currently undergoing a phase 3 clinical trial with non-alcoholic steatohepatitis as an indication, was used.
In the case of a control compound (obeticholic acid, 10 mg/kg/day), an appropriate amount was weighed and then diluted in sterile distilled water and administered. In the case of the test compound, after weighing the appropriate amount, it was diluted with 0.5 wt % methyl cellulose aqueous solution to which 1 wt % Tween 80 was added. During oral administration, the weight of the mouse was measured, and the animals were fixed using the cervical skin fixation method, and each test compound was administered using a sonde for oral administration.
It was measured at the start of administration, and once a week and on the day of autopsy after the start of administration.
It was measured right before the start of administration, and once a week after the start of administration of the test compound. As for the measurement method, the remaining amount of feed was measured per unit of breeding box next day after quantitative feeding, the difference was calculated, and the average intake per mouse was calculated.
The following items were tested using a blood biochemical analyzer (7180 Hitachi, Japan) with blood collected and separated at right before and the 6th week (the day of autopsy) after administration of the test compound.
Six weeks after administration of the test compound: ALT (alanine transaminase), AST (aspartate transaminase), TG (triglyceride), TCHO (total cholesterol), HDL (high-density lipoprotein), LDL (low-density lipoprotein), GGT (Gamma-glutamyltransferase), LDH (Lactate dehydrogenase)
On the day of autopsy, pimonidazole was diluted in saline at a concentration of 30 mg/ml, and then administered intravenously at a dose of 60 mg/kg. Animals were euthanized 90 minutes after administration. At each autopsy, the animals were inhaled with ether, and when anesthesia was confirmed, blood was collected from the posterior vena cava using a syringe. Thereafter, the abdominal aorta and posterior vena cava were cut, bleeding, and killed. Blood was injected into a vacutainer tube containing a clot activator, allowed to stand at room temperature for about 15 minutes to coagulate, and then centrifuged at 3,000 rpm for 10 minutes to separate the serum. Serum was stored in a deep freezer set at −70° C. or lower before analysis, and was used for blood biochemical tests.
At autopsy, the liver was excised and weighed, the right lobe of the liver was fixed in 10% neutral buffered formalin solution, and the left lobe was divided into half and rapidly frozen using liquid nitrogen. The quick-frozen specimens were stored in a cryogenic freezer set at −70° C. or lower until ELISA analysis. […]

[4] = single administration and combined administration with metformin; cited from earlier work
[5] = clinical trials; cited from earlier work
[6] = 10 mg/kg/day (G4), vs vehicle control group (G2)
[7] = 30 mg/kg/day (G5), vs vehicle control group (G2)

C[C@@H]1CN(c2ccc(S(C)(=O)=O)cc2F)CCN1c1nccc(C(=O)N[C@H]2C3CC4CC2C[C@](O)(C4)C3)n1 [Chemical Formula 1, 2-((R)-4-(2-fluoro-4-(methylsulfonyl)phenyl)-2-methylpiperazin-1-yl)-N-((1R,2s,3S,5S,7S)-5-hydroxyadamantan-2-yl)pyrimidine-4-carboxamide]
triglycerides in liver tissue ([1]; 10 mg/kg/day (G3, G4) oral once a day): statistically significant decrease
triglycerides in liver tissue ([1]; 30 mg/kg/day (G5) oral once a day): statistically significant decrease
concentration of the liver tissue compared with plasma concentration [2]: higher than the plasma concentration
ALT level (blood biochemical test) ([3]; 10 mg/kg/day (G3, G4) oral once a day, vs vehicle control group (G2), p<0.05): significantly lower
Hydroxyproline expression area level ([3]; 10 mg/kg/day (G3, G4), vs normal control group (G1), p<0.001 or p<0.05): significantly higher
Hydroxyproline expression area level ([3]; 10 mg/kg/day (G3, G4), vs vehicle control group (G2), p<0.001 or p<0.01): significantly lower
TCHO level in liver tissue (ELISA) [3, 6]: significantly lower
TG level in liver tissue (ELISA) [3, 6]: significantly lower
LDL level (blood biochemical test) ([3]; 10 mg/kg/day (G4), vs vehicle control group (G2) and positive control group (G3)): significantly lower
oil red O staining area level ([3]; 10 mg/kg/day (G4), vs vehicle control group): significantly lower
ALT level (blood biochemical test) ([3]; 30 mg/kg/day (G5) oral once a day, vs vehicle control group (G2), p<0.001 or p<0.05): significantly lower
TCHO level in liver tissue (ELISA) [3, 7]: significantly lower
TG level in liver tissue (ELISA) [3, 7]: significantly lower
LDL level (blood biochemical test) ([3]; 30 mg/kg/day (G5), vs vehicle control group (G2) and positive control group (G3)): significantly lower
relative liver weight level ([3]; 30 mg/kg/day (G5), vs vehicle control group (G2) and positive control group (G3), p<0.01 or p<0.05): significantly lower
Hydroxyproline expression area level ([3]; 30 mg/kg/day (G5), vs vehicle control group (G2), p<0.001 or p<0.01): significantly lower
AST level (blood biochemical test) ([3]; 30 mg/kg/day (G5), vs vehicle control group (G2), p<0.001 or p<0.05): significantly lower
liver weight level (absolute) ([3]; 30 mg/kg/day (G5), vs vehicle control group (G2), p<0.05): significantly lower
oil red O staining area level ([3]; 30 mg/kg/day (G5), vs vehicle control group): significantly lower
microvesicular steatosis level (histopathology) ([3]; 30 mg/kg/day (G5), vs vehicle control group, p<0.05): significantly lower
effect of alleviating non-alcoholic steatohepatitis ([3]; 30 mg/kg/day, compared to positive control compound): superior
blood biochemistry, liver relative weight, TG and TCHO content in liver tissue, and microvesicular steatosis level ([3]; high dose administration group, vs positive control group): lower than those of the positive control group
LDH (FIG. 2) ([3]; high-dose administration group, compared to normal group): concentration similar to that of the normal group
levels of inflammation (histopathology) ([3]; test compound administration group, vs vehicle control group): lower levels of inflammation
LDH (FIG. 2) ([3]; test compound groups, compared to the positive control group): tends to decrease LDH
efficacy as therapeutic agent for type 2 diabetes [4]: did not show sufficient efficacy

CC[C@H]1[C@@H](O)[C@@H]2[C@H](CC[C@]3(C)[C@@H]([C@H](C)CCC(=O)O)CC[C@@H]23)[C@@]2(C)CC[C@@H](O)C[C@@H]12 [OCA, obeticholic acid]
subjects showing stomach pain and fatigue [5]: more than 10%
subjects with side effects like irregular heartbeat, dry skin, constipation, joint pain, peripheral edema, sore throat, thyroid hormone irregularity, rash [5]: about 10%
